Key:
total cholesterol = assay: Change in total cholesterol levels; format: in vivo, human; conditions: resulting from treatment, 3 weeks
Procedure: (§1) Endothelium-dependent vasodilation was assessed by brachial artery ultrasound using computer-assisted image analysis; ADMA and L-arginine plasma concentrations were determined by a validated HPLC method.
(§2) In the study described in Example 15, the change in total cholesterol (TC), LDL cholesterol, HDL cholesterol, and triglycerides was analyzed pre- and post-treatment.

HDL cholesterol = conditions: resulting from treatment, 3 weeks
Procedure: as §1, §2

LDL cholesterol = conditions: resulting from treatment, 3 weeks
Procedure: as §1, §2

triglycerides = assay: Triglyceride levels pre- and post-treatment; format: in vivo, human; conditions: for No. of subjects outside normal range, triglycerides: 15 subjects
[1] = resulting from treatment, 3 weeks

Structure (SMILES): CCC(C)(C)C(=O)O[C@H]1C[C@@H](C)C=C2C=C[C@H](C)[C@H](CC[C@@H]3C[C@@H](O)CC(=O)O3)[C@H]21 [Simvastatin, simvastatin]
- Change in Total Cholesterol Levels, Mean (total cholesterol): -76.3 mg/dL
- Change in Total Cholesterol Levels, Median (total cholesterol): -78.0 mg/dL
- Change in Total Cholesterol Levels, Min-Max (total cholesterol): -134 to -14 mg/dL
- Change in High Density Lipoprotein Cholesterol Levels, Mean (HDL cholesterol): 1.2 mg/dL
- Change in High Density Lipoprotein Cholesterol Levels, Median (HDL cholesterol): 0.0 mg/dL
- Change in High Density Lipoprotein Cholesterol Levels, Min-Max (HDL cholesterol): -7 to 20 mg/dL
- Change in Low Density Lipoprotein Cholesterol Levels, Mean (LDL cholesterol): -70.7 mg/dL
- Change in Low Density Lipoprotein Cholesterol Levels, Median (LDL cholesterol): -78.0 mg/dL
- Change in Low Density Lipoprotein Cholesterol Levels, Min-Max (LDL cholesterol): -121 to -20 mg/dL
- Triglyceride Levels, Mean (triglycerides; after treatment, 3 weeks): 140.2 mg/dL
- Triglyceride Levels, Median (triglycerides; after treatment, 3 weeks): 134.0 mg/dL
- Triglyceride Levels, Min-Max (triglycerides; after treatment, 3 weeks): 58 to 440 mg/dL
- No. of subjects outside normal range, triglycerides (triglycerides; after treatment, 3 weeks): 1
- Triglyceride Levels, Mean (triglycerides; before treatment): 165.1 mg/dL
- Triglyceride Levels, Median (triglycerides; before treatment): 155.0 mg/dL
- Triglyceride Levels, Min-Max (triglycerides; before treatment): 51 to 337 mg/dL
- No. of subjects outside normal range, triglycerides (triglycerides; before treatment): 5
- Change in Triglyceride Levels, Mean (triglycerides; [1]): -24.9 mg/dL
- Change in Triglyceride Levels, Median (triglycerides; [1]): -38.0 mg/dL
- Change in Triglyceride Levels, Min-Max (triglycerides; [1]): -143 to 205 mg/dL

Source: US20050288373A1, “Methods of treating various conditions by administration of sustained release L-arginine” (priority 2002, published 2005)
